Reference: US20080200442A1, “Compositions and Methods for Treating, Reducing, Ameliorating, or Preventing Infections of the Ear or Upper Respiratory Tract” (priority 2007, published 2008)
Values after ≈ are worked out from the molar mass of the structure shown. Read-outs that look alike come from different tables or passages of the source.

Legend:
Format in all cases: cell-based
[1] = system: Propionibacterium acnes; assay: In vitro anti-bacterial activity (MIC90), ophthalmologic clinical bacteria isolates; conditions: Cutibacterium acnes, Gram-positive
[2] = system: Bacteroides thetaiotaomicron (GAI 0659); assay: In vitro anti-bacterial activity (MIC90), anaerobic reference bacteria
[3] = system: Gentamycin-resistant Pseudomonas aeruginosa; assay: In vitro anti-bacterial activity (MIC90), ophthalmologic clinical bacteria isolates
[4] = system: Salmonella typhimurium (TD); assay: In vitro anti-bacterial activity (MIC90), Gram-negative reference strains
Experimental: Anti-bacterial activity of the compound having Formula III was tested against several Gram-negative reference bacteria strains and compared to the anti-bacterial activity of three commercially available antibiotics (nadifloxacin, ofloxacin, and sparfloxacin).

[5] = system: Streptococcus pneumoniae; assay: In vitro anti-bacterial activity (MIC90), ophthalmologic clinical bacteria isolates; conditions: Gram-positive
[6] = system: Propionibacterium acnes (GAI 5419); assay: In vitro anti-bacterial activity (MIC90), anaerobic reference bacteria; conditions: Cutibacterium acnes
[7] = system: Staphylococcus aureus; assay: In vitro anti-bacterial activity (MIC90), ophthalmologic clinical bacteria isolates; conditions: Gram-positive
[8] = system: Staphylococcus aureus (Smith); assay: In vitro anti-bacterial activity (MIC90), Gram-positive reference strains
Experimental: (§1) Anti-bacterial activity of the compound having Formula III was tested against several Gram-negative reference bacteria strains and compared to the anti-bacterial activity of three commercially available antibiotics (nadifloxacin, ofloxacin, and sparfloxacin). The results are shown in Table 2 as MIC90 values (minimum concentration of the active compound required to inhibit ninety percent of the growth of a specified pathogen, in μg/ml). Anti-bacterial activity of the compound having Formula III was tested against several Gram-positive reference bacteria strains and compared to the anti-bacterial activity of three commercially available antibiotics (nadifloxacin, ofloxacin, and sparfloxacin).

[9] = system: Streptococcus pneniae (IID 554); assay: as above; conditions: IID554
Experimental: as §1

[10] = system: Sarcina lutea (ATCC 9341); assay: as above; conditions: Micrococcus luteus, ATCC9341
Experimental: as §1

[11] = system: Staphylococcus aureus (FDA 209P); assay: as above; conditions: FDA209P
Experimental: as §1

[12] = system: Streptococcus pyogenes (Cook); assay: as above
Experimental: as §1

[13] = system: Staphylococcus epidermidis (ATCC 12228); assay: as above; conditions: ATCC12228
Experimental: as §1

[14] = system: Streptococcus pneumoniae (IID 553); assay: as above; conditions: IID553
Experimental: as §1

[15] = system: Bacillis subtilis (ATCC 6633); assay: as above
Experimental: as §1

[16] = system: Streptococcus faecalis (IFO 12964); assay: as above; conditions: Enterococcus faecalis, IFO12964
Experimental: as §1

[17] = system: Streptococcus faecalis (ATCC 29212); assay: as above; conditions: Enterococcus faecalis, ATCC29212
Experimental: as §1

[18] = system: Streptococcus pyogenes (IID 698); assay: as above; conditions: IID698
Experimental: as §1

[19] = system: Staphylococcus aureus (ATCC 25933); assay: as above; conditions: ATCC25933
Experimental: as §1

[20] = system: Pseudomonas aeruginosa; assay: In vitro anti-bacterial activity (MIC90), ophthalmologic clinical bacteria isolates; conditions: Gram-negative
[21] = system: Staphylococcus aureus (ATCC 33593); assay: In vitro anti-bacterial activity (MIC90), methicillin-resistant Staphylococcus aureus isolates; conditions: ATCC33593; methicillin-resistant Staphylococcus aureus (ATCC 33593)
Experimental: (§2) Anti-bacterial activity of the compound having Formula III was tested against several Gram-negative reference bacteria strains and compared to the anti-bacterial activity of three commercially available antibiotics (nadifloxacin, ofloxacin, and sparfloxacin). The results are shown in Table 2 as MIC90 values (minimum concentration of the active compound required to inhibit ninety percent of the growth of a specified pathogen, in μg/ml).
(§3) Anti-bacterial activity of the compound having Formula III was tested against some methicillin-resistant Staphylococcus aureus bacteria strains and compared to the anti-bacterial activity of three commercially available antibiotics (nadifloxacin, ofloxacin, and sparfloxacin).

[22] = system: Staphylococcus aureus (No. 395); assay: as above; conditions: methicillin-resistant Staphylococcus aureus (No. 395)
Experimental: as §2, §3

[23] = system: Staphylococcus aureus (No. 421); assay: as above; conditions: methicillin-resistant Staphylococcus aureus (No. 421)
Experimental: as §2, §3

[24] = system: Staphylococcus aureus (ATCC 33592); assay: as above; conditions: ATCC33592; methicillin-resistant Staphylococcus aureus (ATCC 33592)
Experimental: as §2, §3

[25] = system: Staphylococcus aureus (ATCC 33591); assay: as above; conditions: ATCC33591; methicillin-resistant Staphylococcus aureus (ATCC 33591)
Experimental: as §2, §3

[26] = system: Staphylococcus aureus (No. 419); assay: as above; conditions: methicillin-resistant Staphylococcus aureus (No. 419)
Experimental: as §2, §3

[27] = system: Staphylococcus aureus (No. 420); assay: as above; conditions: methicillin-resistant Staphylococcus aureus (No. 420)
Experimental: as §2, §3

[28] = system: Staphylococcus aureus (No. 415); assay: as above; conditions: methicillin-resistant Staphylococcus aureus (No. 415)
Experimental: as §2, §3

[29] = system: Penicillin-resistant Streptococcus pneumoniae; assay: In vitro anti-bacterial activity (MIC90), ophthalmologic clinical bacteria isolates
[30] = system: Peptostreptococcus magnum (GAI 0664); assay: In vitro anti-bacterial activity (MIC90), anaerobic reference bacteria
[31] = system: Propionibacterium acnes (ATCC 6919); assay: as above; conditions: Cutibacterium acnes, ATCC6919
[32] = system: Veillonella parvula (GAI 5602); assay: as above
[33] = system: Corynebacterium species; assay: In vitro anti-bacterial activity (MIC90), ophthalmologic clinical bacteria isolates; conditions: Gram-positive
[34] = system: Clostridium perfringens (KZ 210); assay: microbe, parasite or virus in culture
[35] = system: Haemophilus influenzae; assay: In vitro anti-bacterial activity (MIC90), ophthalmologic clinical bacteria isolates; conditions: Gram-negative
[36] = system: Propionibacterium acnes (ATCC 11828); assay: In vitro anti-bacterial activity (MIC90), anaerobic reference bacteria; conditions: Cutibacterium acnes, ATCC11828
[37] = system: Bacteroides vulgatus (GAI 0673); assay: as above; conditions: Phocaeicola vulgatus
[38] = system: Moraxella species; assay: In vitro anti-bacterial activity (MIC90), ophthalmologic clinical bacteria isolates; conditions: Gram-negative
[39] = system: Peptostreptococcus micros (GIFU 7824); assay: In vitro anti-bacterial activity (MIC90), anaerobic reference bacteria; conditions: Parvimonas micra
[40] = system: Ofloxacin-resistant Staphylococcus aureus; assay: In vitro anti-bacterial activity (MIC90), ophthalmologic clinical bacteria isolates
[41] = system: Coagulase-negative Staphylococcus; assay: as above; conditions: Gram-positive
[42] = system: Gentamycin-resistant Staphylococcus aureus; assay: as above
[43] = system: Bacteroides fragillis (GAI 0675); assay: In vitro anti-bacterial activity (MIC90), anaerobic reference bacteria

NC1CCCCN(c2c(F)cc3c(=O)c(C(=O)O)cn(C4CC4)c3c2Cl)C1 (centres unmarked) [Compound Having Formula III]
MIC90 [1]: 0.25 µg/mL | MIC90 ([2]; anaerobic, Bacteroides thetaiotaomicron (GAI 0659), read-out: MIC90): 0.2 µg/mL | MIC90 [3]: 32 µg/mL | MIC90 [4]: 0.05 mμg/mL | MIC90 [5]: 0.13 µg/mL | MIC90 [6]: 0.2 µg/mL | MIC90 [7]: 1 µg/mL | MIC90 [8]: 0.006 µg/mL | MIC90 [9]: 0.2 µg/mL | MIC90 [10]: 0.1 µg/mL | MIC90 [11]: 0.012 µg/mL | MIC90 [12]: 0.1 µg/mL | MIC90 [13]: 0.05 µg/mL | MIC90 [14]: 0.1 µg/mL | MIC90 [15]: 0.012 µg/mL | MIC90 [16]: 0.1 µg/mL | MIC90 [17]: 0.2 µg/mL | MIC90 [18]: 0.1 µg/mL | MIC90 [19]: 0.05 µg/mL | MIC90 [20]: 4 µg/mL | MIC90 [21]: 0.012 µg/mL | MIC90 [22]: 0.006 µg/mL | MIC90 [23]: 0.2 µg/mL | MIC90 [24]: 0.05 µg/mL | MIC90 [25]: 0.012 µg/mL | MIC90 [26]: 0.1 µg/mL | MIC90 [27]: 0.1 µg/mL | MIC90 [28]: 0.05 µg/mL | MIC90 [29]: 0.13 µg/mL | MIC90 [30]: 0.05 µg/mL | MIC90 [31]: 0.2 µg/mL | MIC90 [32]: 0.1 µg/mL | MIC90 [33]: 2 µg/mL | MIC90 [34]: 0.2 µg/mL | MIC90 [35]: ≤ 0.06 µg/mL | MIC90 [36]: 0.39 µg/mL | MIC90 [37]: 0.1 µg/mL | MIC90 [38]: 0.13 µg/mL | MIC90 [39]: 0.2 µg/mL | MIC90 [40]: 8 µg/mL | MIC90 [41]: 0.5 µg/mL | MIC90 [42]: 4 µg/mL | MIC90 [43]: 0.1 µg/mL

CC1CCc2c(N3CCC(O)CC3)c(F)cc3c(=O)c(C(=O)O)cn1c23 (centres unmarked) [Nadifloxacin]
MIC90 ([2]; Bacteroides thetaiotaomicron): 1.56 µg/mL (≈ 4.33 µM) | MIC90 [4]: 0.2 mμg/mL | MIC90 [6]: 0.2 µg/mL (≈ 0.555 µM) | MIC90 [8]: 0.024 µg/mL (≈ 0.0666 µM) | MIC90 [9]: 0.78 µg/mL (≈ 2.16 µM) | MIC90 [10]: 0.39 µg/mL (≈ 1.08 µM) | MIC90 [11]: 0.024 µg/mL (≈ 0.0666 µM) | MIC90 [12]: 0.78 µg/mL (≈ 2.16 µM) | MIC90 [13]: 0.1 µg/mL (≈ 0.277 µM) | MIC90 [14]: 0.78 µg/mL (≈ 2.16 µM) | MIC90 [15]: 0.006 µg/mL (≈ 0.0166 µM) | MIC90 [16]: 0.78 µg/mL (≈ 2.16 µM) | MIC90 [17]: 0.78 µg/mL (≈ 2.16 µM) | MIC90 [18]: 0.1 µg/mL (≈ 0.277 µM) | MIC90 [19]: 0.05 µg/mL (≈ 0.139 µM) | MIC90 [21]: 0.024 µg/mL (≈ 0.0666 µM) | MIC90 [22]: 0.024 µg/mL (≈ 0.0666 µM) | MIC90 [23]: 0.78 µg/mL (≈ 2.16 µM) | MIC90 [24]: 0.05 µg/mL (≈ 0.139 µM) | MIC90 [25]: 0.006 µg/mL (≈ 0.0166 µM) | MIC90 [26]: 0.39 µg/mL (≈ 1.08 µM) | MIC90 [27]: 0.78 µg/mL (≈ 2.16 µM) | MIC90 [28]: 0.1 µg/mL (≈ 0.277 µM) | MIC90 [30]: 0.2 µg/mL (≈ 0.555 µM) | MIC90 [31]: 0.2 µg/mL (≈ 0.555 µM) | MIC90 [32]: 0.78 µg/mL (≈ 2.16 µM) | MIC90 [34]: 0.2 µg/mL (≈ 0.555 µM) | MIC90 [36]: 0.78 µg/mL (≈ 2.16 µM) | MIC90 [37]: 0.78 µg/mL (≈ 2.16 µM) | MIC90 [39]: 0.39 µg/mL (≈ 1.08 µM) | MIC90 [43]: 1.56 µg/mL (≈ 4.33 µM)
